Activity calls are given as the source filed them. For most assays here, no stated cut-off is given here; in the data, actives have a measured Kd and inactives only a lower limit.
How the values were obtained:
[1] = target: T1, Phosphatidylinositol 5-phosphate 4-kinase type-2 gamma (Homo sapiens, UniProt Q8TBX8)
T1 sequence (Q8TBX8 whole entry): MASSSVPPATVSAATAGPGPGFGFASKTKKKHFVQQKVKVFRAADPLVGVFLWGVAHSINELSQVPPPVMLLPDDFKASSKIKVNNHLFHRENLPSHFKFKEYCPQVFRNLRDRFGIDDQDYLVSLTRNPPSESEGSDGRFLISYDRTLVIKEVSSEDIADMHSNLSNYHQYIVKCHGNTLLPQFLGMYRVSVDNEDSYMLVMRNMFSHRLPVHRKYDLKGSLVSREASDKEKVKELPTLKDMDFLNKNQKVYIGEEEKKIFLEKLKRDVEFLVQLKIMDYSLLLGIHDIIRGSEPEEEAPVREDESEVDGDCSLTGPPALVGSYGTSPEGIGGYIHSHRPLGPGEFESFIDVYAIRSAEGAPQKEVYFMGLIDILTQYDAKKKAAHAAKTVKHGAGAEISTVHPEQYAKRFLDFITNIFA

[2] = target: T2, Tyrosine-protein kinase Tec (Homo sapiens, UniProt P42680)
T2 sequence (P42680 whole entry): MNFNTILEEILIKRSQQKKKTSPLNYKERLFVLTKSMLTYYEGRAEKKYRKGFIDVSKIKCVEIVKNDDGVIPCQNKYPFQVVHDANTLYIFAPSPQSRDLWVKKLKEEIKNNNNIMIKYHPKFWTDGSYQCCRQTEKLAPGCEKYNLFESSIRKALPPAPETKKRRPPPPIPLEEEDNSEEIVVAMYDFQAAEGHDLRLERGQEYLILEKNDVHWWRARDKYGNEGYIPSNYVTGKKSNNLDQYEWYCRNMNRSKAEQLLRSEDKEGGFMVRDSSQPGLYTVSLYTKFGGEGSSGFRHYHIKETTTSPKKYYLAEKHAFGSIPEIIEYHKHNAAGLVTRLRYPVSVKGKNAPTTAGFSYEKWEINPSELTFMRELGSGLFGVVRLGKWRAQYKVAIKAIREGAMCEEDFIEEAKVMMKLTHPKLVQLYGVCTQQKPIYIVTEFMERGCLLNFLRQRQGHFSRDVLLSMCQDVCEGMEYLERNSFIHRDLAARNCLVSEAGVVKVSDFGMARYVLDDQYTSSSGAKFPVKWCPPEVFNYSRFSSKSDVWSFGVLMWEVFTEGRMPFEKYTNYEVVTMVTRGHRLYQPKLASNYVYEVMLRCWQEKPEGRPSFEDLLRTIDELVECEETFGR

[3] = target: MAP/microtubule affinity-regulating kinase 3 (Homo sapiens, UniProt P27448)
[4] = target: Serine/threonine-protein kinase 26 (Homo sapiens, UniProt Q9P289)
[5] = target: T3, Non-receptor tyrosine-protein kinase TNK1 (Homo sapiens, UniProt Q13470)
T3 sequence (Q13470 whole entry): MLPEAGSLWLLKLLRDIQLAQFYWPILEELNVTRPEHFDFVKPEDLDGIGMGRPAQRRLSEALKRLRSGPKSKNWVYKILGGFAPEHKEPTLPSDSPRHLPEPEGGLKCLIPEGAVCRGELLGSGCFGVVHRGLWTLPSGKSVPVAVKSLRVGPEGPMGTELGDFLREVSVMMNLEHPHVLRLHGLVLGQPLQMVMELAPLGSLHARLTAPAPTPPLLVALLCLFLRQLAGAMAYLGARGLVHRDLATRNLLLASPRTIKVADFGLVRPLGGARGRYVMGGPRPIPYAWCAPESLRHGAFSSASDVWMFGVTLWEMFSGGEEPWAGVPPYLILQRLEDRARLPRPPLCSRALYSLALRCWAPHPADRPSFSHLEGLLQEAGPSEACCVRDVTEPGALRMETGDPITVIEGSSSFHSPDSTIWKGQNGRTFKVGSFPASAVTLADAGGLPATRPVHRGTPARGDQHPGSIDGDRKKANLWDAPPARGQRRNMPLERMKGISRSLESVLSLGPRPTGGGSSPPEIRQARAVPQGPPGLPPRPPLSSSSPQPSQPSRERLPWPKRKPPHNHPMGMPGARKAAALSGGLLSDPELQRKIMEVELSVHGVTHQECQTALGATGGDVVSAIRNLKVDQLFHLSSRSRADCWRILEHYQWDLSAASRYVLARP

[6] = target: Atypical kinase COQ8A, mitochondrial (Homo sapiens, UniProt Q8NI60)
[7] = target: T4, ATP-dependent RNA helicase DDX1 (Homo sapiens, UniProt Q92499)
T4 sequence (Q92499 whole entry): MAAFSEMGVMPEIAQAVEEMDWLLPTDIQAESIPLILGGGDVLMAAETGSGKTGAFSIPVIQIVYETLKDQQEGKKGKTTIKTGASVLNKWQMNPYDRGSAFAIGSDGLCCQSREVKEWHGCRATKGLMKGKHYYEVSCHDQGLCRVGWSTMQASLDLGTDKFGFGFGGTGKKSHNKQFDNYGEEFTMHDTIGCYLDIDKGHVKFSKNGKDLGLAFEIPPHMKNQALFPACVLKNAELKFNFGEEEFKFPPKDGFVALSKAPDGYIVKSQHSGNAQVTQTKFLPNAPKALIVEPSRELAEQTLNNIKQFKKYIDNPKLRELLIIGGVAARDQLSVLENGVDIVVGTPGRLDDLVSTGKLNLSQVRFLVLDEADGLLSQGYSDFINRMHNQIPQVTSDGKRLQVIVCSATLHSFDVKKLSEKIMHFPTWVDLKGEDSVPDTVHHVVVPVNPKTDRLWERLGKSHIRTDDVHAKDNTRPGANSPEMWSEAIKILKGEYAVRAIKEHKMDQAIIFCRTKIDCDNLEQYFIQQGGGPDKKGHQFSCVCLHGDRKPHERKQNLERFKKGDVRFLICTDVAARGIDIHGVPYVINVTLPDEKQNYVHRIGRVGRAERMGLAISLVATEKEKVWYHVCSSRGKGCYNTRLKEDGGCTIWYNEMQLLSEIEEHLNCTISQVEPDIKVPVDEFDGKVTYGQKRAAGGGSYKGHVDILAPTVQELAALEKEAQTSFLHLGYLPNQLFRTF

[8] = target: Guanine nucleotide-binding protein G(i) subunit alpha-2 (Homo sapiens, UniProt P04899)
Chain of Guanine nucleotide-binding protein G(i) subunit alpha-2 (P04899 whole entry): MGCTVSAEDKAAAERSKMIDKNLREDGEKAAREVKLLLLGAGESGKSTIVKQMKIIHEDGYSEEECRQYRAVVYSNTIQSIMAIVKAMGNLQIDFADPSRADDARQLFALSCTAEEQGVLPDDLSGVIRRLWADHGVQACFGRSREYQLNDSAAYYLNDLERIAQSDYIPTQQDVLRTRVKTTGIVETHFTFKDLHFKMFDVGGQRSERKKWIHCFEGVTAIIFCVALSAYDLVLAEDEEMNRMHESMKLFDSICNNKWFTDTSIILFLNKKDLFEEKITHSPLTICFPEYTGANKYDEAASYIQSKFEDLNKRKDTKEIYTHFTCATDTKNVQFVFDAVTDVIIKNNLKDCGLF

Chain of Atypical kinase COQ8A, mitochondrial (Q8NI60 whole entry): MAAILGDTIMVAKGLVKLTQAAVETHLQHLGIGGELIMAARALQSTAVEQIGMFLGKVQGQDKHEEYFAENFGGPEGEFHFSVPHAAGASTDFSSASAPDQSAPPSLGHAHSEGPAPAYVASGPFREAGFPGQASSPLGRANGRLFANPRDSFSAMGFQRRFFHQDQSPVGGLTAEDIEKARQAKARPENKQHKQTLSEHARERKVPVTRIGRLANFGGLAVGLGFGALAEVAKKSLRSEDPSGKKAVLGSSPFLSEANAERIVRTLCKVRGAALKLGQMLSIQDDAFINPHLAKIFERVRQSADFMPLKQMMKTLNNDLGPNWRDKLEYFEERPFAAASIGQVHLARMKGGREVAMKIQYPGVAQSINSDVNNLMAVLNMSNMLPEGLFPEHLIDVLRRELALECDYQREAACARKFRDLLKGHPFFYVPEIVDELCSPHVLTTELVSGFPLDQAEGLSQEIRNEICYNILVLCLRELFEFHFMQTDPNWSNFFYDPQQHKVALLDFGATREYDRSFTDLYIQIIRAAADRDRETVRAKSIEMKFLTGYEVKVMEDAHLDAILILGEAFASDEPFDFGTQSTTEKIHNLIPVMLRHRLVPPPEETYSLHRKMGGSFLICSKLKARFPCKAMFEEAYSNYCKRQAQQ
Chain of Serine/threonine-protein kinase 26 (Q9P289 whole entry): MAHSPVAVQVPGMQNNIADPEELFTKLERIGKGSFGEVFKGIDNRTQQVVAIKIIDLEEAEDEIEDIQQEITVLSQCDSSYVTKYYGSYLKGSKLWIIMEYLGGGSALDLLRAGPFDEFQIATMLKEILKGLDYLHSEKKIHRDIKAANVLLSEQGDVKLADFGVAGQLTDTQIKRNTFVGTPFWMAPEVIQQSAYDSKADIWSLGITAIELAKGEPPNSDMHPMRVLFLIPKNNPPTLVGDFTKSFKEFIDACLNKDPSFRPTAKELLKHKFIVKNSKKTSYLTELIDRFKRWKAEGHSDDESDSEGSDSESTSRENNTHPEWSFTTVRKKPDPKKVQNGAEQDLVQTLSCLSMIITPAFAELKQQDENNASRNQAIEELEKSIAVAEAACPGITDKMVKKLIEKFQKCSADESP
Chain of MAP/microtubule affinity-regulating kinase 3 (P27448 whole entry): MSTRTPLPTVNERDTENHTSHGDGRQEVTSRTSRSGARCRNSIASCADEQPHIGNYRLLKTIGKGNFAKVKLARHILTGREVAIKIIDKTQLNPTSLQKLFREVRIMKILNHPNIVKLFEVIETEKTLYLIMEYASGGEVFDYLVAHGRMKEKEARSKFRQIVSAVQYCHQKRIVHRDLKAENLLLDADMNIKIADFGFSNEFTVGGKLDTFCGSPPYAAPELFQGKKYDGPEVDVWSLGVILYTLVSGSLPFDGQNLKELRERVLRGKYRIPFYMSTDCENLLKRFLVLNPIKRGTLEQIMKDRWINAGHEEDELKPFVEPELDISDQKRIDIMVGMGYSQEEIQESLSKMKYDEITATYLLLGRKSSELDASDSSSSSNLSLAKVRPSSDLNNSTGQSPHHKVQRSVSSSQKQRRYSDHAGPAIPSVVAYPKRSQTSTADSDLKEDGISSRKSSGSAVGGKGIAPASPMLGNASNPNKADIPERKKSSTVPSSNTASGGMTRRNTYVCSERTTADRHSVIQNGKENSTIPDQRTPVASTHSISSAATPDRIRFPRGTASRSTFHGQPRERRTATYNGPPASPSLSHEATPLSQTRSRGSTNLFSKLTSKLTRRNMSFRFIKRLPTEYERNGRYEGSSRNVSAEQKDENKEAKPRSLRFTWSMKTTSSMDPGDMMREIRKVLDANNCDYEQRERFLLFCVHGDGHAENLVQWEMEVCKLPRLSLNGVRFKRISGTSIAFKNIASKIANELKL

| Compound | Kd [1] | Kd [2] | Kd [3] | Kd [4] | Kd [5] | Kd [6] | Kd [7] | Kd [8] |
| --- | --- | --- | --- | --- | --- | --- | --- | --- |
| Cn1c(=O)c(F)c(Nc2ccc(I)cc2F)c2c(=O)n(C[C@@H](O)CO)cnc21 [TAK-733] | > 30 µM (inactive) | > 30 µM (inactive) | > 30 µM (inactive) | > 30 µM (inactive) | > 30 µM (inactive) | > 30 µM (inactive) | > 30 µM (inactive) |  |
| C[C@]1(O)C[C@@H](c2nc(-c3ccc4ccc(-c5ccccc5)nc4c3)c3c(N)nccn32)C1 [LINSITINIB] | 5.57 µM (active) | > 30 µM (inactive) |  | > 30 µM (inactive) | > 30 µM (inactive) | > 30 µM (inactive) | > 30 µM (inactive) | > 30 µM (inactive) |
| COc1cc2ncnc(Nc3ccc(O)cc3)c2cc1OC [WHI-P131] | > 30 µM (inactive) | > 30 µM (inactive) | > 30 µM (inactive) | > 30 µM (inactive) | > 30 µM (inactive) | > 30 µM (inactive) | > 30 µM (inactive) |  |
| O=C(O)c1ccc2c(c1)nc(Nc1cccc(Cl)c1)c1ccncc12 [SILMITASERTIB] | 1.11 µM (active) | > 30 µM (inactive) | > 30 µM (inactive) | 1.71 µM | > 30 µM (inactive) | > 30 µM (inactive) |  |  |
| CN(c1ncccc1CNc1nc(Nc2ccc3c(c2)CC(=O)N3)ncc1C(F)(F)F)S(C)(=O)=O [PF-00562271] | > 30 µM (inactive) | > 30 µM (inactive) |  | 0.012 µM | > 30 µM (inactive) | > 30 µM (inactive) | > 30 µM (inactive) | > 30 µM (inactive) |
| Cn1c(=O)n(-c2ccc(C(C)(C)C#N)cc2)c2c3cc(-c4cnc5ccccc5c4)ccc3ncc21 [DACTOLISIB] | > 30 µM (inactive) | > 30 µM (inactive) |  | > 30 µM (inactive) | > 30 µM (inactive) | > 30 µM (inactive) | > 30 µM (inactive) | > 30 µM (inactive) |
| Cn1cnc2c(F)c(Nc3ccc(Br)cc3Cl)c(C(=O)NOCCO)cc21 [SELUMETINIB] |  |  |  |  |  |  | > 30 µM (inactive) | > 30 µM (inactive) |
| CNC(=O)c1cc(COc2nnc(Nc3ccc(Cl)cc3)c3ccoc23)ccn1 [TELATINIB] | > 30 µM (inactive) | > 30 µM (inactive) | > 30 µM (inactive) | > 30 µM (inactive) | > 30 µM (inactive) | > 30 µM (inactive) | > 30 µM (inactive) |  |
| COc1cc2c(N3CCN(C(=O)Nc4ccc(OC(C)C)cc4)CC3)ncnc2cc1OCCCN1CCCCC1 [TANDUTINIB] |  |  |  |  |  |  | > 30 µM (inactive) |  |
| COc1cc2c(Oc3ccc4[nH]c(C)cc4c3F)ncnc2cc1OCCCN1CCCC1 [CEDIRANIB] |  |  |  |  |  |  | > 30 µM (inactive) |  |
| CNC(=O)c1ccc(Nc2ncc(C(F)(F)F)c(NCc3nccnc3N(C)S(C)(=O)=O)n2)cc1 [DEFACTINIB] | > 30 µM (inactive) | > 30 µM (inactive) | 4.49 µM (active) | > 30 µM (inactive) | 11.3 µM (active) | > 30 µM (inactive) | > 30 µM (inactive) |  |

— ChEMBL document CHEMBL3991601, “The target landscape of clinical kinase drugs” (Science, 2017)
